Data set [1] has as its system ApoB-100-associated lipoproteins. In words: Inhibition of the release of ApoB-100-associated lipoproteins from hepatic cells (HepG2), LDL immunoassay. Format: cell-based, human. To be noted: concentration at which adsorption of light (450 nm) is inhibited by 50% compared with solvent control. The procedure: 1. Inhibition of the release of ApoB-100-associated lipoproteins
The test for detection of the inhibition of the release of ApoB-100-associated lipoproteins from hepatic cells was carried out in vitro with cultured hepatic cells, preferably with cells of the human line HepG2. These cells are cultured under standard conditions in medium for culture of eukaryotic cells, preferably in RPM 1640 with 10% foetal calf serum. HepG2 cells synthesize and secrete into the culture supernatant ApoB-100-associated lipoprotein particles, which are in principle built up similarly to the VLDL and LDL particles which are to be found in plasma.
These particles can be detected with an immunoassay for human LDL. This immunoassay is carried out with antibodies which have been induced against human LDL in rabbits under standard conditions. The anti-LDL antibodies (rab-anti-LDL-Ab) were purified by affinity chromatography on an immunosorbent with human LDL. These purified rab-anti-LDL-Ab are adsorbed onto the surface of plastic. This adsorption is expediently carried out on the plastic surface of microtiter plates with 96 wells, preferably on MaxiSorp plates. If ApoB-100-associated particles are present in the supernatant of Hep-G2 cells, these can then bond to the insolubilized rab-anti-LDL-Ab, and an immune complex bonded to the plastic surface is formed. Non-bonded proteins are removed by washing. The immune complex on the plastic surface is detected with monoclonal antibodies, which have been induced against human LDL and purified under standard conditions. These antibodies were conjugated with the enzyme peroxidase. Peroxidase converts the colourless substrate TMB into a coloured product in the presence of H2O2. After acidification of the reaction mixture with H2SO4, the specific adsorption of light is determined at 450 nm, this being a measure of the amount of ApoB-100-associated particles which had been secreted by the HepG2 cells into the culture supernatant.
The IC50 value indicates the concentration of substance at which the adsorption of light is inhibited by 50% compared with the control (solvent control without the substance).

Data set [2] has as its system intestinal triglyceride absorption. The data set is described as follows: Inhibition of intestinal triglyceride absorption in vivo (rats). To be noted: fasting rats, postprandial serum triglyceride increase after tragacanth-olive oil loading. Set-up: species or system male Wistar rats. The method, then: 3. Inhibition of intestinal triglyceride absorption in vivo (rats)
The substances which are to be investigated in vivo for their inhibiting action on triglyceride absorption are administered orally to male Wistar rats having a body weight of between 170 and 230 g. For this purpose, the animals are divided into groups of 6 animals 18 hours before administration of the substance, and their food is then withdrawn. Drinking water is available to the animals ad libitum. The animals of the control groups are given an aqueous tragacanth suspension or a tragacanth suspension which comprises olive oil. The tragacanth-olive oil suspension is prepared with an Ultra-Turrax. The substances to be investigated are suspended in a corresponding tragacanth-olive oil suspension, likewise with an Ultra-Turrax, directly before administration of the substance.
Before administration by a stomach tube, blood is taken from each rat by puncture of the retroorbital venous plexus for determination of the basal serum triglyceride content. The tragacanth suspension, the tragacanth-olive oil suspensions without a substance (control animals) or the substances, suspended in a corresponding tragacanth-olive oil suspension, are then administered to the fasting animals using a stomach tube. Further blood for determination of the postprandial serum triglyceride increase is as a rule taken 1, 2 and 3 hours after the administration by a stomach tube.
The blood samples are centrifuged and, after isolation of the serum, the triglycerides are determined photometrically with an EPOS-Analyzer 5060 (Eppendorf Gerätebau, Netheler & Hinz GmbH, Hamburg). The triglycerides are determined completely enzymatically with a commercially available UV test.
The postprandial increase in serum triglycerides is determined by subtraction of the triglyceride prevalue of each animal from its corresponding postprandial triglyceride concentrations (1, 2 and 3 hours after administration).
The average is taken of the differences (in mmol/l) at each point in time (1, 2 and 3 hours) in the groups, and the means of the increase in serum triglycerides (ΔTG) of the animals treated with the substance are compared with the animals which received only the tragacanth-oil suspension.
The course of the serum triglycerides in the control animals, which were given only tragacanth, is also calculated. The effect of the substance at each point in time (1, 2 or 3 hours) is determined as follows and stated in Δ% of the oil-loaded control. [formula]
Effect of 10 mg of test substance/kg of body weight p.o. on the increase in triglycerides (Δ%) 2 hours after a triglyceride loading in the serum of fasting rats. The increase in serum triglycerides of fat-loaded control animals, based on the serum triglycerides level of tragacanth control animals, corresponds to 100%. n=6 animals per group.
The statistical analysis is carried out with the Student t-test after first checking the variances for homogeneity.

The structures appear in SMILES notation. Where two headings read alike, the source gives them in different places. Some results are limits rather than exact numbers.

Consider `Cc1cc2ccccc2n1Cc1ccc(C(C(=O)NC(CO)c2ccccc2)C2CCCCCC2)cc1` (mixture of isomers) [Example 4], for which, in data set [1], the IC50 is 40.5 nM. In data set [2] (p.o.), the ED50 was under 10 mg/kg.
In data set [1], `Cc1c(C)n(Cc2ccc(C(C(=O)NC(CO)c3ccccc3)C3CCCC3)cc2)c2ccccc12` (mixture of isomers) [Example 5] displayed an IC50 of 83.2 nM.
Still for that read-out and setting: the result for `Cc1c(C)n(Cc2ccc(C(C(=O)NC(CO)c3ccccc3)C3CCCCC3)cc2)c2ccccc12` (mixture of isomers) [Example 8] reads 50.5 nM.
As to `O=C(NC(CO)c1ccccc1)C(c1ccc(Cn2c(-c3ccccc3)cc3ccccc32)cc1)C1CCCCCC1` (mixture of isomers) [Example 16], the IC50 in data set [1] turned out to be 35.9 nM. Further, the ED50 in data set [2] (p.o.) was over 2 mg/kg.
Compound `CCOC(=O)c1cc2ccccc2n1Cc1ccc(C(C(=O)NC(CO)c2ccccc2)C2CCCC2)cc1` (mixture of isomers) [Example 17] returned an IC50 in data set [1] of 38.1 nM.
`CCOC(=O)c1cc2ccccc2n1Cc1ccc(C(C(=O)NC(CO)c2ccccc2)C2CCCCCC2)cc1` (mixture of isomers) [Example 20] came in with an IC50 in data set [1] of 8.1 nM. For the same compound, the ED50 in data set [2] (p.o.) is reported as >>10 mg/kg.
For `CCOC(=O)c1cc2cc(OC)ccc2n1Cc1ccc(C(C(=O)NC(CO)c2ccccc2)C2CCCC2)cc1` (mixture of isomers) [Example 23], in that order: 36.1 nM and 2 mg/kg.
On to `CCOC(=O)c1cc2cc(Cl)ccc2n1Cc1ccc(C(C(=O)NC(CO)c2ccccc2)C2CCCC2)cc1` (mixture of isomers) [Example 26], for which, in data set [1], the IC50 came to 26.8 nM.
Take `Cc1cn(Cc2ccc(C(C(=O)NC(CO)c3ccccc3)C3CCCCCC3)cc2)c2ccccc12` (mixture of isomers) [Example 29]: the IC50 in data set [1] was found to be 40.5 nM. Besides, the ED50 in data set [2] (p.o.) is 3 mg/kg.
For `Cc1cccc2ccn(Cc3ccc(C(C(=O)NC(CO)c4ccccc4)C4CCCC4)cc3)c12` (mixture of isomers) [Example 31], the IC50 in data set [1] turned out to be 428 nM.
In data set [1], `O=C(NC(CO)c1ccccc1)C(c1ccc(Cn2ccc3cc(Cl)ccc32)cc1)C1CCCCCC1` (mixture of isomers) [Example 32] registered a 50% inhibitory concentration (IC50) of 48.5 nM.
In data set [1], `O=C(NC(CO)c1ccccc1)C(c1ccc(Cn2ccc3ccc(Cl)cc32)cc1)C1CCCC1` (mixture of isomers) [Example 33] showed a concentration for half-maximal inhibition (IC50) of 41.1 nM.
Same read-out and setting: in the case of `COc1cccc2c1ccn2Cc1ccc(C(C(=O)NC(CO)c2ccccc2)C2CCCC2)cc1` (mixture of isomers) [Example 36] it was 72.5 nM; in that of `Cc1c(C)n(Cc2ccc(C(C(=O)NC(CO)c3ccccc3)C3CCCC3)cc2)c2ccccc12` (single isomer, unassigned) [Example 6], 37.4 nM.
Regarding `Cc1c(C)n(Cc2ccc(C(C(=O)NC(CO)c3ccccc3)C3CCCC3)cc2)c2ccccc12` (single isomer, unassigned) [Example 7], inhibition in data set [1] was half-maximal at 229 nM (IC50).
Compound `O=C(NC(CO)c1ccccc1)C(c1ccc(Cn2c(-c3ccccc3)cc3ccccc32)cc1)C1CCCC1` (single isomer, unassigned) [Example 14] showed an IC50 in data set [1] of 474 nM.
Same read-out and setting: the result for `O=C(NC(CO)c1ccccc1)C(c1ccc(Cn2c(-c3ccccc3)cc3ccccc32)cc1)C1CCCC1` (single isomer, unassigned) [Example 15] reads 47.3 nM.
On to `CCOC(=O)c1cc2ccccc2n1Cc1ccc(C(C(=O)NC(CO)c2ccccc2)C2CCCCCC2)cc1` (single isomer, unassigned) [Example 21], for which the 50% inhibitory concentration (IC50) in data set [1] is 4.5 nM. Besides, the ED50 in data set [2] (p.o.) is >>6 mg/kg.
For `CCOC(=O)c1cc2ccccc2n1Cc1ccc(C(C(=O)NC(CO)c2ccccc2)C2CCCCCC2)cc1` (single isomer, unassigned) [Example 22], the IC50 in data set [1] was determined as 23.5 nM.
`CCOC(=O)c1cc2cc(Cl)ccc2n1Cc1ccc(C(C(=O)NC(CO)c2ccccc2)C2CCCC2)cc1` (single isomer, unassigned) [Example 27] displayed an IC50 in data set [1] of 6.5 nM. The compound further returned an ED50 in data set [2] (p.o.) of over 2 mg/kg.
For the compound `CCOC(=O)c1cc2cc(Cl)ccc2n1Cc1ccc(C(C(=O)NC(CO)c2ccccc2)C2CCCC2)cc1` (single isomer, unassigned) [Example 28], the IC50 in data set [1] was found to be 62.6 nM.
In data set [1], `O=C(NC(CO)c1ccccc1)C(c1ccc(Cn2ccc3ccc(Cl)cc32)cc1)C1CCCC1` (single isomer, unassigned) [Example 34] showed an IC50 of 12.3 nM. In data set [2] (p.o.), this compound displayed an ED50 of 2 mg/kg.
`O=C(NC(CO)c1ccccc1)C(c1ccc(Cn2ccc3ccc(Cl)cc32)cc1)C1CCCC1` (single isomer, unassigned) [Example 35] yielded a 50% inhibitory concentration (IC50) in data set [1] of 308 nM.
Consider `COc1cccc2c1ccn2Cc1ccc(C(C(=O)NC(CO)c2ccccc2)C2CCCC2)cc1` (single isomer, unassigned) [Example 37], for which the 50% inhibitory concentration (IC50) in data set [1] amounted to 31.1 nM. The same compound gave an ED50 in data set [2] (p.o.) of over 2 mg/kg.
In turn, `COc1cccc2c1ccn2Cc1ccc(C(C(=O)NC(CO)c2ccccc2)C2CCCC2)cc1` (single isomer, unassigned) [Example 38] came in with an IC50 in data set [1] of 270 nM.
As for `Cc1c(C)n(Cc2ccc(C(C(=O)N[C@@H](CO)c3ccccc3)C3CCCCCC3)cc2)c2ccccc12` (stereo partly drawn) [Example 2, 2-Cycloheptyl-N-(2-hydroxy-1-(R)-phenylethyl)-2-[4-(2,3-dimethylindol-1-yl-methyl)phenyl]acetamide], the melting point stood at 163 °C. Moreover, 29.5 nM corresponded to half-maximal inhibition in data set [1] (Homo sapiens) (IC50). Further, in data set [2] (Rattus norvegicus, po, read-out: TG absorption ED50 or % inhibition mg/kg/p.o.), the ED50 is under 3 mg/kg.

One may read the IC50 as the concentration needed to halve the response being measured. A low value points to higher potency. A word on the melting point: it is the temperature, or range, at which the solid turns liquid.

The values are drawn from patent US20020028940A1, “Indolyl-substituted phenylacetic acid derivatives” (priority 1995, published 2002).
